Data set [1] deals with male SD rats. The data set is described as follows: Prostate and seminal vesicle weights after 14 days repeat oral administration. Type of data set: in vivo. The method, then: The effect of ASN001 and its individual enantiomers on prostate and seminal vesicle weights was evaluated after 14 days repeat oral administration in male SD rats. ASN001 caused a dose-dependent reduction of the prostate and seminal vesicle weights.
(In a prior test using ASN001 at 30 mg/kg once a day (QD) PO×14 days, not made in comparison to either enantiomer, but using the same general protocol, the reduction in prostate and seminal vesicle weights was “about 50%” and “about 60%” respectively. See Example 88 of WO 2013/049559.)
(§1) General procedures for the in vitro and in vivo studies discussed above have been described previously in WO 2013/049559 (published in the US as United States Patent Application Publication No. US 2013/0085148; see e.g. Examples 84-88). The inhibitory effect of compounds on human CYP17 lyase activity in vitro in human testicular microsomes (CelsisIVT, US) was determined in a similar manner to the CYP17 lyase assay in rat testicular microsomes described previously as Example 84 in WO 2013/049559 (published in the US as United States Patent Application Publication No. US 2013/0085148), except that human testicular microsomes were used instead of rat testicular microsomes.

The test system of data set [2] is cortisol synthesis. Nature of the data set: Cell-based functional assay: cortisol synthesis inhibition in H295R cells. Details: species or system human. The method, then:
Cell-Based Functional Assay: Cortisol Synthesis Inhibition
The H295R cell based assay was used to examine effects on cortisol synthesis. The DetectX® Cortisol Immunoassay kit (Arbor Assays, Cat. No. K003-H1) measures Cortisol present in extracted dried fecal samples, serum, plasma and tissue culture media samples.
(§2) Standard Preparation • 1. Label seven test tubes as #1 through #7. • 2. Pipet 450 μL of Assay Buffer into tube #1 and 250 μL into tubes #2 to #7. • 3. The Cortisol stock solution contains an organic solvent. Pre-rinse the pipet tip several times to ensure accurate delivery. • 4. Carefully add 50 μL of the Cortisol stock solution to tube #1 and vortex completely. • 5. Take 250 μL of the Cortisol solution in tube #1 and add it to tube #2 and vortex completely. • 6. Repeat the serial dilutions for tubes #3 through #7. • 7. The concentration of Cortisol in tubes 1 through 7 will be 5,000, 2,500, 1,250, 625, 312.5, 156.25 and 78.125 pg/mL.
(§3) Assay Protocol • 1. Subculture H295R (Human Adreno Cortical Carcinoma cell line ATCC# CRL-2128) cells and seed 60,000 cells per well in a poly-d lysine plate and leave it overnight at 37° C. • 2. Add 50 μl of serially diluted compounds from a 5×plate. • 3. Incubate overnight at 37° C. (˜16 hours). • 4. Collect media/cell culture supernatant and dilute appropriately for Cortisol estimation (1:10 diluted with assay buffer). • 5. Pipet 50 μL of samples or standards into wells in the plate. • 6. Pipet 75 μL of Assay Buffer into the non-specific binding (NSB) wells. • 7. Pipet 50 μL of Assay Buffer into wells to act as maximum binding wells (B0 or 0 pg/mL). • 8. Add 25 μL of the DetectX® Cortisol Conjugate to each well using a repeater pipet. • 9. Add 25 μL of the DetectX® Cortisol Antibody to each well, except the NSB wells, using a repeater pipet. • 10. Gently tap the sides of the plate to ensure adequate mixing of the reagents. Cover the plate with the plate sealer and shake at room temperature for 1 hour. If the plate is not shaken signals bound will be approximately 45% lower. • 11. Aspirate the plate and wash each well 4 times with 300 μL wash buffer. Tap the plate dry on clean absorbent towels. • 12. Add 100 μL of the TMB Substrate to each well, using a repeater pipet. • 13. Incubate the plate at room temperature for 30 minutes without shaking. • 14. Add 50 μL of the Stop Solution to each well, using a repeater or a multichannel pipet. • 15. Read the optical density generated from each well in a plate reader capable of reading at 450 nm. • 16. Use the plate reader's built-in 4PLC software capabilities to calculate Cortisol concentration for each sample.

In data set [3] the test system is corticosterone synthesis. Nature of the data set: Cell-based functional assay: corticosterone synthesis inhibition in H295R cells. Details: species or system human. How it is done:
Cell-Based Functional Assay: Corticosterone Synthesis Inhibition
The H295R cell based assay was used to examine effects on corticosterone synthesis. The DetectX® Corticosterone Immunoassay kit (Arbor Assays, Cat. No. K014-H1) measures Corticosterone present in extracted dried fecal samples, serum, plasma and tissue culture media samples.
as §2, with “corticosterone” for “Cortisol”
as §3, with “for Corticosterone” for “for Cortisol”, “(1:10 Diluted” for “(1:10 diluted”, “wells (Bo” for “wells (B0”, “DetectX® Corticosterone” for “DetectX® Cortisol”, “calculate Corticosterone” for “calculate Cortisol”

Data set [4] is described as follows: Food effect and bioavailability in rats. Type of data set: in vivo, rat. The source says:
Accordingly, the dosage forms, regimens and methods of administration described herein may be accomplished on humans in the fed or fasted state and with food or without. Thus, the methods described herein could include administration of a therapeutically effective amount of ASN001, as a substantially pure enantiomer, as a mixture or as a racemic mixture, which is “food indifferent” which means with or without food to a patient in a fed or fasted state. Examples include, without limitation, with food, to a patient who has consumed food in the last two hours, without food, and/or to a patient who has not eaten in the last two hours.

Data set [5] has as its system male SD rats. To be noted: prior test, 30 mg/kg QD PO x 14 days; Example 88 of WO 2013/049559; cited from earlier work.
The test system of data set [6] is testosterone synthesis. Nature of the data set: Cell-based functional assay: testosterone synthesis inhibition in H295R cells. Also on record: species or system human. The note with it: for EC50: Homo sapiens, NCI-H295R, H295R cells; for IC50 / testosterone/cortisol synthesis inhibition ratio: human adrenal NCI-H295R cells. How it is done:
Cell-Based Functional Assay: Testosterone Synthesis Inhibition
To understand how the inhibition of CYP17 lyase impacts testosterone synthesis, testosterone levels were measured in H295R adrenocortical carcinoma cells. This assay was conducted as described previously as Example 86 in WO 2013/049559 (published in the US as United States Patent Application Publication No. US 2013/0085148).

Data set [7] deals with T1, CYP17 C17,20-lyase (Homo sapiens, UniProt P05093).
T1 construct: These cells have intact testosterone synthesis pathway; host or cells: NCI-H295R human adrenocortical carcinoma cells
T1 sequence (P05093 1-508): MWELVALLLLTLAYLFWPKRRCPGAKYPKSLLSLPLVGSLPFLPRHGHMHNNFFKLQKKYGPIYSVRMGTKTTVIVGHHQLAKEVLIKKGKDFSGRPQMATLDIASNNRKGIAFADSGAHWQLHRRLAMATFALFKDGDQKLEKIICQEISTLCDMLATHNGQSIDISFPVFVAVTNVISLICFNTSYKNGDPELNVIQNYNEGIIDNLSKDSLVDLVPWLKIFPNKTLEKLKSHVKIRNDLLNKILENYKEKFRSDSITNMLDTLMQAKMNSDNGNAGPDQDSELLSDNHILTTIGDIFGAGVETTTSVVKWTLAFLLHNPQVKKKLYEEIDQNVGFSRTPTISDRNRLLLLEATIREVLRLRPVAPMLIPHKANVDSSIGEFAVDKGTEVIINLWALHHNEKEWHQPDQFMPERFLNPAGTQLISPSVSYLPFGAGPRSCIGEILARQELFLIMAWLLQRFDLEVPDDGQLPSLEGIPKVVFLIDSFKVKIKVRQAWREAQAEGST
Nature of the data set: CYP17 lyase assay in human testicular microsomes. Type of data set: biochemical.
Excerpt: ASN001 has one chiral center. The individual enantiomers of ASN001 are both potent and selective inhibitors of CYP17. […] Similar relative potency results for the racemate and enantiomers have also been obtained experimentally in rat testicular microsomes and human H295R adrenocortical carcinoma cells. In summary ASN001 and its individual enantiomers are all potent inhibitors of CYP17 activity and testosterone synthesis in biochemical and cellular functional assays.
as §1

Data set [8] addresses T1, CYP17 C17,20-lyase. The data set is described as follows: Cell-based CYP17 C17,20-lyase assay in H295R cells. How it is done: Cell-Based CYP17 C17,20-Lyase Assay
To test the inhibitory effect of compounds on CYP17 C17,20-lyase activity in cells, human adrenocortical carcinoma H295R cells (ATCC) were used. These cells have intact testosterone synthesis pathway and are ideal to study the effect of compounds on various enzymes involved in this pathway. The cell-based CYP17 C17,20-Lyase assay was conducted as described previously as Example 85 in WO 2013/049559 (published in the US as United States Patent Application Publication No. US 2013/0085148).

Where [9] appears, read: Homo sapiens, NCI-H295R, H295R cells, read-out: cortisol synthesis inhibition IC50.
Setting [10] is: human adrenal NCI-H295R cells, read-out: cortisol synthesis IC50.
Where [11] appears, read: Homo sapiens, NCI-H295R, H295R cells, read-out: corticosterone synthesis inhibition IC50.
Where [12] appears, read: human adrenal NCI-H295R cells, read-out: corticosterone synthesis IC50.
[13] abbreviates: H295R cells, average of multiple runs, read-out: CYP17 C17,20-lyase average IC50.
[14] abbreviates: human adrenal NCI-H295R cells, read-out: 17,20-Lyase IC50.

Each structure is given as a SMILES string. Read-outs that look alike come from different tables or passages of the source.

These results are taken from patent US20170319563A1, “STEROID-FREE DISEASE MANAGEMENT” (Asana BioSciences, LLC, priority 2014, published 2017).

`CC(O)(c1ccncc1)c1cnc(-c2ccc(F)cc2)s1` (racemic) [ASN001, 1-(2-(4-fluorophenyl)thiazol-5-yl)-1-(pyridin-4-yl)ethanol]: the “reduction in prostate weight” value is 24% in data set [1] (10 mg/kg BID PO x 14 days), 29% in data set [1] (30 mg/kg QD PO x 14 days) and “about 50%” in data set [5]. Also, the “reduction in seminal vesicle weight” value in data set [1] (10 mg/kg BID PO x 14 days) is 48%; in data set [1] (30 mg/kg QD PO x 14 days) it was 43%; in data set [5], “about 60%”. For the same compound, the IC50 came out at 346 nM in data set [2] (setting [9]); 350 nM in data set [2] (setting [10]); 2800 nM in data set [3] (setting [11]); 2800 nM in data set [3] (setting [12]); 54 nM in data set [6]; 15 nM in data set [7]. In addition, the IC50 in data set [8] (setting [13]) and in data set [8] (setting [14]) was 50 nM throughout. Besides, the bioavailability result in data set [4] (rat and other non-clinical species) is “quite high”. The food effect result in data set [4] (rats) is listed as “does not exhibit a food effect”. Further, the EC50 in data set [6] came to 54 nM. The “testosterone/cortisol synthesis inhibition ratio” value in data set [6] was 6.5. Besides, the “difference between C17,20-lyase inhibition and cortisol biosynthesis inhibition” value in data set [8] (adrenal NCI-H295R cells) is on record as about 7 fold.
For the compound `CC(O)(c1ccncc1)c1cnc(-c2ccc(F)cc2)s1` (single isomer, unassigned; (+)) [(+)ASN001], in data set [7], inhibition was half-maximal at 63 nM (IC50).
On to `CC(O)(c1ccncc1)c1cnc(-c2ccc(F)cc2)s1` (single isomer, unassigned; (-)) [(−)ASN001], for which the “reduction in prostate weight” value in data set [1] (10 mg/kg BID PO x 14 days) was 30%; in data set [1] (15 mg/kg QD PO x 14 days) it was 17%. For the same compound, the “reduction in seminal vesicle weight” value in data set [1] (10 mg/kg BID PO x 14 days) worked out at 31%; in data set [1] (15 mg/kg QD PO x 14 days) it was 27%. Further, the IC50 in data set [7] came out at 8 nM.
In the case of `C[C@]12CC[C@H](O)CC1=CC[C@@H]1[C@@H]2CC[C@]2(C)C(c3cccnc3)=CC[C@@H]12` [Abiraterone, abiraterone, reference compound], the IC50 in data set [2] (setting [9]) is 0.68 nM; in data set [2] (setting [10]) it was under 1 nM; in data set [3] (setting [11]) it was 65 nM; in data set [3] (setting [12]), 65 nM; in data set [6], 5 nM; in data set [8] (setting [13]), 2.8 nM. The IC50 in data set [8] (setting [14]) came to 3 nM. The EC50 in data set [6] came out at 5 nM. For the same compound, the “testosterone/cortisol synthesis inhibition ratio” value in data set [6] is listed as under 0.2.

As a reminder, the IC50 is the concentration that inhibits the measured activity by half. A word on the EC50: it is the concentration that produces a half-maximal response. Low values mean greater potency, high ones weaker potency.
